Measured values taken from patent publication US20230017045A1, “PYRIDINE AND PYRIMIDINE CARBOXYLATE HERBICIDES AND METHODS OF USE THEREOF” (Dow AgroSciences LLC, priority 2017, published 2023).
Like-named read-outs stand apart in the source and are kept apart here.

System: test plant species
Assay: Post-emergent herbicidal activity test (greenhouse, foliar spray, visual growth reduction)
Type: in vivo
Details: post-emergence, 336 h, 140 g ai/ha
Experimental: Post-emergent Test: Seeds or nutlets of the desired test plant species were planted in Sun Gro Metro-Mix® 360 planting mixture, which typically has a pH of 6.0 to 6.8 and an organic matter content of about 30 percent, in plastic pots with a surface area of 64 square centimeters. In some aspects, to ensure good germination and healthy plants, a fungicide treatment and/or other chemical or physical treatment was applied. The plants were grown for 7-21 d in a greenhouse with an approximate 15 h photoperiod which was maintained at 23-29° C. during the day and 22-28° C. during the night. Nutrients and water were added on a regular basis and supplemental lighting was provided with overhead metal halide 1000-Watt lamps as necessary. Plants were used for testing when they reached the first or second true leaf stage. A weighed amount, determined by the highest rate to be tested, of each test compound was placed in a 25 mL glass vial and was dissolved in 4 mL of a 97:3 v/v mixture of acetone and DMSO to obtain concentrated stock solutions. […] The concentrated stock solutions obtained were diluted with 20 mL of an aqueous mixture containing acetone, water, isopropyl alcohol, DMSO, […] crop oil concentrate, and X-77 surfactant in a 48.5:39:10:1.5:1.0:0.02 v/v ratio to obtain spray solutions containing the application rate. Compound requirements are based upon a 12 mL application volume at a rate of 187 liters per hectare (L/ha). Formulated compounds were applied to the plant material with an overhead Mandel track sprayer equipped with […] nozzles calibrated to deliver 187 L/ha over an application area of 0.64 square meters at a spray height of 18 inches (43 cm) above the average plant canopy height. Control plants were sprayed in the same manner with the solvent blank. The treated plants and control plants were placed in a greenhouse as described above and watered by subirrigation to prevent wash-off of the test compounds. After 14 d, the condition of the test plants as compared with that of the nontreated and control plants was determined visually and scored on a scale of 0 to 100 percent where 0 corresponds to no injury and 100 corresponds to complete control. In the reporting of the results, Table A: Percent Growth Reduction Conversion Table was used.

[1] = ALOMY: blackgrass (Alopecurus myosuroides), 14 days after application, read-out: Visual Growth Reduction (%) 14 Days After Application, ALOMY
[2] = AMARE: redroot pigweed (Amaranthus retroflexus), 14 days after application, read-out: Visual Growth Reduction (%) 14 Days After Application, AMARE
[3] = AVEFA: wild oat (Avena fatua), 14 days after application, read-out: Visual Growth Reduction (%) 14 Days After Application, AVEFA
[4] = CHEAL: lambsquarters (Chenopodium album), 14 days after application, read-out: Visual Growth Reduction (%) 14 Days After Application, CHEAL
[5] = CIRAR: canada thistle (Cirsium arvense), 14 days after application, read-out: Visual Growth Reduction (%) 14 Days After Application, CIRAR
[6] = CYPES: yellow nutsedge (Cyperus esculentus), 14 days after application, read-out: Visual Growth Reduction (%) 14 Days After Application, CYPES
[7] = DIGSA: crabgrass (Digitaria sanguinalis), 14 days after application, read-out: Visual Growth Reduction (%) 14 Days After Application, DIGSA
[8] = ECHCG: barnyardgrass (Echinochloa crus-galli), 14 days after application, read-out: Visual Growth Reduction (%) 14 Days After Application, ECHCG
[9] = IPOHE: ivy-leaf morning glory (Ipomoea hederacea), 14 days after application, read-out: Visual Growth Reduction (%) 14 Days After Application, IPOHE
[10] = KCHSC: kochia (Bassia scoparia), 14 days after application, read-out: Visual Growth Reduction (%) 14 Days After Application, KCHSC
[11] = ORYSA: rice (Oryza sativa), 14 days after application, read-out: Visual Growth Reduction (%) 14 Days After Application, ORYSA
[12] = SETFA: giant foxtail (Setaria faberi), 14 days after application, read-out: Visual Growth Reduction (%) 14 Days After Application, SETFA
[13] = SORVU: grain sorghum (Sorghum vulgare), 14 days after application, read-out: Visual Growth Reduction (%) 14 Days After Application, SORVU
[14] = STEME: common chickweed (Stellaria media), 14 days after application, read-out: Visual Growth Reduction (%) 14 Days After Application, STEME
[15] = TRZAS: wheat, spring (Triticum aestivum), 14 days after application, read-out: Visual Growth Reduction (%) 14 Days After Application, TRZAS
[16] = blackgrass (Alopecurus myosuroides), 14 Days After Application, read-out: Visual Growth Reduction (%) ALOMY
[17] = canada thistle (Cirsium arvense), 14 Days After Application, read-out: Visual Growth Reduction (%) CIRAR
[18] = crabgrass (Digitaria sanguinalis), 14 Days After Application, read-out: Visual Growth Reduction (%) DIGSA
[19] = lambsquarters (Chenopodium album), 14 Days After Application, read-out: Visual Growth Reduction (%) CHEAL
[20] = redroot pigweed (Amaranthus retroflexus), 14 Days After Application, read-out: Visual Growth Reduction (%) AMARE
[21] = wild oat (Avena fatua), 14 Days After Application, read-out: Visual Growth Reduction (%) AVEFA
[22] = yellow nutsedge (Cyperus esculentus), 14 Days After Application, read-out: Visual Growth Reduction (%) CYPES

Compound	pest or weed control at 140 g/ha [8] [%]	pest or weed control at 140 g/ha [9] [%]	pest or weed control at 140 g/ha [10] [%]	pest or weed control at 140 g/ha [11] [%]	pest or weed control at 140 g/ha [12] [%]	pest or weed control at 140 g/ha [13] [%]	pest or weed control at 140 g/ha [14] [%]	pest or weed control at 140 g/ha [15] [%]	pest or weed control at 140 g/ha [16] [%]	pest or weed control at 140 g/ha [17] [%]	pest or weed control at 140 g/ha [18] [%]	pest or weed control at 140 g/ha [19] [%]	pest or weed control at 140 g/ha [20] [%]	pest or weed control at 140 g/ha [21] [%]	pest or weed control at 140 g/ha [22] [%]	also measured
COC(=O)c1nc(-c2ccc(C(F)(F)F)cc2Cl)cc(Br)c1Cl [F41, methyl 4-bromo-3-chloro-6-(2-chloro-4-(trifluoromethyl)phenyl)picolinate]	0 to 29	0 to 29	0 to 29	0 to 29	0 to 29	0 to 29	0 to 29	0 to 29								pest or weed control at 140 g/ha [1]: 0 to 29%; pest or weed control at 140 g/ha [2]: 0 to 29%; pest or weed control at 140 g/ha [3]: 0 to 29%; pest or weed control at 140 g/ha [4]: 0 to 29%; pest or weed control at 140 g/ha [5]: 0 to 29%; pest or weed control at 140 g/ha [6]: 0 to 29%; pest or weed control at 140 g/ha [7]: 0 to 29%
COC(=O)c1nc(-c2c(C=O)cc(OC)c(O)c2Cl)ccc1Cl [F228, Methyl 3-chloro-6-(2-chloro-6-formyl-3-hydroxy-4-methoxyphenyl) picolinate]	0 to 29	0 to 29	0 to 29	0 to 29	0 to 29	0 to 29	0 to 29	0 to 29	0 to 29	0 to 29	0 to 29	0 to 29	0 to 29	0 to 29	0 to 29	
N#Cc1cc(C(F)(F)F)cc(Cl)c1-c1ccc(Cl)c(C(=O)O)n1 [F162, 3-Chloro-6-(2-chloro-6-cyano-4-(trifluoromethyl)phenyl)picolinic acid]	95 to 100	95 to 100	95 to 100	0 to 29	85 to 94	60 to 74	0 to 29	45 to 59								pest or weed control at 140 g/ha [1]: 0 to 29%; pest or weed control at 140 g/ha [2]: 95 to 100%; pest or weed control at 140 g/ha [3]: 30 to 44%; pest or weed control at 140 g/ha [4]: 95 to 100%; pest or weed control at 140 g/ha [5]: 85 to 94%; pest or weed control at 140 g/ha [6]: 0 to 29%; pest or weed control at 140 g/ha [7]: 75 to 84%
C=Cc1cc(-c2nc(C(=O)OC)c(Cl)cc2F)c(OC)c2c1OC(F)(F)O2 [F372, Methyl 3-chloro-6-(2,2-difluoro-4-methoxy-7-vinylbenzo[d][1,3]dioxol-5-yl)-5-fluoropicolinate]	0 to 29	95 to 100	0 to 29	0 to 29	0 to 29	30 to 44	0 to 29	0 to 29	0 to 29	0 to 29	0 to 29	0 to 29	45 to 59	0 to 29	0 to 29	
COC(=O)c1nc(-c2cc(Br)c(C(F)(F)F)cc2Cl)c(Cl)cc1Cl [F257, Methyl 6-(5-bromo-2-chloro-4-(trifluoromethyl)phenyl)-3,5-dichloropicolinate]	0 to 29	85 to 94	0 to 29	0 to 29	0 to 29	0 to 29	0 to 29	0 to 29	0 to 29	0 to 29	0 to 29	75 to 84	0 to 29	0 to 29	0 to 29	
CCCCOC(=O)c1nc(-c2ccc(Br)c(OC)c2F)ccc1Cl [F283, Butyl 6-(4-bromo-2-fluoro-3-methoxyphenyl)-3-chloropicolinate]	0 to 29	0 to 29	75 to 84	0 to 29	0 to 29	0 to 29	0 to 29	0 to 29	0 to 29	85 to 94	0 to 29	85 to 94	30 to 44	0 to 29	30 to 44	
COC(=O)c1nc(-c2c(Cl)cc(C(F)(F)F)cc2I)ccc1Cl [F214, methyl 3-chloro-6-(2-chloro-6-iodo-4-(trifluoromethyl)phenyl)picolinate]	0 to 29	95 to 100	75 to 84	0 to 29	75 to 84	85 to 94	30 to 44	75 to 84	45 to 59	85 to 94	95 to 100	95 to 100	75 to 84	60 to 74	0 to 29	
COC(=O)c1nc(-c2cccc3c2OC(F)(F)O3)c(F)cc1Cl [F256, Methyl 3-chloro-6-(2,2-difluorobenzo[d][1,3]dioxol-4-yl)-5-fluoropicolinate]	0 to 29	0 to 29	0 to 29	0 to 29	0 to 29	0 to 29	0 to 29	0 to 29	0 to 29	0 to 29	0 to 29	0 to 29	0 to 29	0 to 29	0 to 29	
